{
  "source": "patent US6239151A",
  "about": "“Compounds as inhibitor of tumor necrosis factor alpha release” (Hoffmann-La Roche Inc., priority 1998, dated 2001)",
  "data": [
    {"test_system": "LPS-induced TNF-α release (THP1 cells)", "assay": "Inhibition of LPS-induced TNF-α release from THP1 cells (ELISA)", "assay_type": "cell-based", "settings": "Homo sapiens, THP-1, LPS 2 mg/ml, 3 hours at 37° C., TNF-α by ELISA, read-out: IC50 (concentration giving 50% inhibition of LPS-induced TNF-α release)", "experimental": "THP1 cells were cultivated in RPMI 1640 medium supplemented with antibiotics and 10% foetal calf serum, harvested by centrifugation and diluted to 5×10^5 cells/ml in the above medium supplemented with 20 mM HEPES buffer. Aliquots ([…]) of the cell suspension were plated out on 96 well culture plates and incubated for 0.5 hour at 37° C. prior to the addition of the test compounds. The latter were dissolved in dimethyl sulphoxide (DMSO) to a stock concentration of 1.2 mM which was diluted with phosphate buffered saline/10% DMSO solution to provide test compounds in final concentrations of 10^-9 to 10^-5 M, with each concentration being tested in duplicate. The cells were incubated with the test compounds for 0.5 hour at 37° C., LPS (bacterial lipopolysaccharide) was then added to a concentration of 2 mg/ml and incubation was continued for 3 hours at 37° C. in an atmosphere containing 5% CO2 and at 95% relative humidity. After centrifugation at 260 g for 10 minutes an aliquot of each supernatant was removed and the amount of TNF-α was estimated by ELISA (R & D Systems Europe Ltd., Abingdon, England). The concentration of test compound which brings about 50% inhibition of LPS-induced TNF-α release (IC50) was computed from the dose-response curve.\nThe results obtained in the foregoing test with representative compounds of formula I are compiled in the following Table.", "units": {"IC50": "µM"}, "values": [
      {"smiles": "CC(C)C[C@@H](C(=O)NN(CC(C)C)C(=O)C(C)O)[C@H](C/C=C/c1ccccc1)C(=O)NO", "note": "(mixture of isomers) [B, (E)-2(R)-[1(S)-(Hydroxycarbamoyl)-4-phenyl-3-butenyl]-2'-(2(RS)-hydroxypropionyl)-2'-isobutyl-4-methylvalerohydrazide]", "IC50": 0.589},
      {"smiles": "CC(C)C[C@@H](C(=O)NN(CC(C)C)C(=O)[C@@H](C)N)[C@H](C/C=C/c1ccccc1)C(=O)NO", "note": "[A, (E)-2'-(D-Alanyl)-2(R)-[1(S)-(hydroxycarbamoyl)-4-phenyl-3-butenyl]-2'-isobutyl-4-methylvalerohydrazide]", "IC50": 0.303},
      {"smiles": "CC(C)C[C@@H](C(=O)NN(CC(C)C)C(=O)Cn1ccnc1)[C@H](C/C=C/c1ccccc1)C(=O)NO", "note": "[C, (E)-2(R)-[1(S)-(Hydroxycarbamoyl)-4-phenyl-3-butenyl]-2'-[2-(1-imidazolyl)acetyl]-2'-isobutyl-4-methylvalerohydrazide]", "IC50": 0.201},
      {"smiles": "CC(C)C[C@@H](C(=O)NN(CC(C)C)C(=O)C1CCNCC1)[C@H](C/C=C/c1ccccc1)C(=O)NO", "note": "[D, (E)-2(R)-[1(S)-(Hydroxycarbamoyl)-4-phenyl-3-butenyl]-2'-isobutyl-4-methyl-2'-[(4-piperidinyl)carbonyl]valerohydrazide]", "IC50": 0.345}
    ]}
  ]
}
